These results are taken from ChEMBL document CHEMBL5131409, “Synthesis and characterization of chiral 6-azaspiro[2.5]octanes as potent and selective antagonists of the M4 muscarinic acetylcholine receptor” (Bioorg Med Chem Lett, 2022).

Molecules are shown by their SMILES.

The target in one series is T1, Muscarinic acetylcholine receptor M4 (Homo sapiens, UniProt P08173).
T1 sequence (P08173 whole entry): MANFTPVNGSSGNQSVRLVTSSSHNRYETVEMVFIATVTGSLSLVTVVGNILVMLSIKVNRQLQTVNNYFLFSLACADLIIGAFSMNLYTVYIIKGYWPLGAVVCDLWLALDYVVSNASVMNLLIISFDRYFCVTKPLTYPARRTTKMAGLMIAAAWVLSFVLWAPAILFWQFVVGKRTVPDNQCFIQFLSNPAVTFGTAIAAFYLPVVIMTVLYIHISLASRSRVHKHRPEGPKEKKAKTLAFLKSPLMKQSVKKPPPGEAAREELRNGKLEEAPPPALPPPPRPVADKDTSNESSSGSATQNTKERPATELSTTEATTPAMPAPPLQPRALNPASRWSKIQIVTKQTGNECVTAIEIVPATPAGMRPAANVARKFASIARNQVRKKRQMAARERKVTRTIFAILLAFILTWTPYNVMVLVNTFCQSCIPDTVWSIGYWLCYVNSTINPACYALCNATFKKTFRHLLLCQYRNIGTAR
The series is described as follows: Inhibition of human muscarinic acetylcholine M4 receptor expressed in CHO cells co-expressing Gqi5 in the presence of acetylcholine at EC80 concentration by calcium mobilization assay. Format: functional, cell-based.
Conditions: not given
On the technique in general: A change in cytosolic calcium serves as a functional read-out for many receptors and channels.
Regarding `Fc1cccc(-c2ccc(NC[C@@H]3CC34CCN(CC3CCOCC3)CC4)nn2)c1`, the IC50 was 54 nM.
Turning to `Fc1ccc(Cl)c(-c2ccc(NC3CC34CCN(CC3CCOCC3)CC4)nn2)c1` (racemic), the half-inhibitory concentration (IC50) was more than 10000 nM.
For `Fc1ccc(Cl)c(-c2ccc(NC3CC4(C3)CN(CC3CCOCC3)C4)nn2)c1`, the IC50 was 2900 nM.
Consider `c1ccc(-c2ccc(NC[C@@H]3CC34CCN(CC3CCOCC3)CC4)nn2)cc1`, for which the IC50 turned out to be 120 nM.
The same measure, in the same setting: as for `Fc1ccccc1-c1ccc(NC[C@@H]2CC23CCN(CC2CCOCC2)CC3)nn1`, the figure is 72 nM.
Regarding `Fc1ccc(Cl)c(-c2ccc(NC[C@@H]3CC34CCN(CC3CCCCC3)CC4)nn2)c1`, the IC50 was 12 nM.
Take `Fc1cc(F)c(F)c(-c2ccc(NC[C@@H]3CC34CCN(CC3CCOCC3)CC4)nn2)c1`: the IC50 amounted to 33 nM.

The target of a further series is T2, Muscarinic acetylcholine receptor M4 (Homo sapiens) (UniProt P08173).
T2 sequence (whole entry): T1 sequence (P08173 whole entry)
The series is described as follows: Antagonist activity at human muscarinic acetylcholine M4 receptor expressed in CHO cells co-expressing Gqi5 assessed as minimal acetylcholine response by calcium mobilization assay relative to control. Format: functional, cell-based. Further details: scale not given: the % may be the effect or the level left. As to conditions: filed as antagonist.
Take `Fc1cccc(-c2ccc(NC[C@@H]3CC34CCN(CC3CCOCC3)CC4)nn2)c1`: the Activity came to 4.2%.
For `Fc1ccc(Cl)c(-c2ccc(NC3CC4(C3)CN(CC3CCOCC3)C4)nn2)c1`, the Activity was 7.8%.
For the compound `c1ccc(-c2ccc(NC[C@@H]3CC34CCN(CC3CCOCC3)CC4)nn2)cc1`, the Activity was found to be 3.5%.
Turning to `Fc1ccccc1-c1ccc(NC[C@@H]2CC23CCN(CC2CCOCC2)CC3)nn1`, the Activity came out at 4.3%.
On the same count and under the same terms, then `Fc1ccc(Cl)c(-c2ccc(NC[C@@H]3CC34CCN(CC3CCCCC3)CC4)nn2)c1`, with 2.6%; and `Fc1cc(F)c(F)c(-c2ccc(NC[C@@H]3CC34CCN(CC3CCOCC3)CC4)nn2)c1`, with 3%.

The series is the same for the next values; noted with them: filed as antagonist, tested as the 2H-labelled form.
Turning to `Fc1cc(F)c(F)c(-c2ccc(NC[C@@H]3CC34CCN(CC3CCOCC3)CC4)nn2)c1`, the Activity was 3.3%.

For another series, the target named is T3, Muscarinic acetylcholine receptor M4 (Rattus norvegicus, UniProt P08485).
T3 sequence (P08485 whole entry): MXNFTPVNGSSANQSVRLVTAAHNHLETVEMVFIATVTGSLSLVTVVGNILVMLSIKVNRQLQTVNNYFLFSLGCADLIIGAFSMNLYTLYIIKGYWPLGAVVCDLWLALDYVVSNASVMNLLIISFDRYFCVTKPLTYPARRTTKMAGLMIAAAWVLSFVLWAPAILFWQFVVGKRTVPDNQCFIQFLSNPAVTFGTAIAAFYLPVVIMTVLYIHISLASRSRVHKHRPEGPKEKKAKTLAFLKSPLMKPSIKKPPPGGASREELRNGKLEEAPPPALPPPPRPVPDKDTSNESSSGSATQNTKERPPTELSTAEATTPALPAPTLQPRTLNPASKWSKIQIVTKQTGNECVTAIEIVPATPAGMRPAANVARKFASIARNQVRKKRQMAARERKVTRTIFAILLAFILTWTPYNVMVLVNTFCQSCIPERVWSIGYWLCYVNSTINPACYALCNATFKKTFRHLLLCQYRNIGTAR
The series is described as follows: Inhibition of rat muscarinic acetylcholine M4 receptor expressed in CHO cells co-expressing Gqi5 in the presence of acetylcholine at EC80 concentration by calcium mobilization assay. It is filed as functional, cell-based.
Conditions: not given
Take `Fc1ccc(Cl)c(-c2ccc(NC[C@@H]3CC34CCN(CC3CCCCC3)CC4)nn2)c1`: the 50% inhibitory concentration (IC50) was found to be 81 nM.

A further series has as its target T4, Muscarinic acetylcholine receptor M4 (Rattus norvegicus) (UniProt P08485).
T4 sequence (whole entry): T3 sequence (P08485 whole entry)
The series is described as follows: Antagonist activity at rat muscarinic acetylcholine M4 receptor expressed in CHO cells co-expressing Gqi5 assessed as minimal acetylcholine response by calcium mobilization assay relative to control. It is filed as functional, cell-based. Set-up: scale not given: the % may be the effect or the level left. As to conditions: filed as antagonist.
Take `Fc1ccc(Cl)c(-c2ccc(NC[C@@H]3CC34CCN(CC3CCCCC3)CC4)nn2)c1`: the Activity came to 4.3%.

In a further series the target is T5, Muscarinic acetylcholine receptor M2 (Homo sapiens, UniProt P08172).
T5 sequence (P08172 whole entry): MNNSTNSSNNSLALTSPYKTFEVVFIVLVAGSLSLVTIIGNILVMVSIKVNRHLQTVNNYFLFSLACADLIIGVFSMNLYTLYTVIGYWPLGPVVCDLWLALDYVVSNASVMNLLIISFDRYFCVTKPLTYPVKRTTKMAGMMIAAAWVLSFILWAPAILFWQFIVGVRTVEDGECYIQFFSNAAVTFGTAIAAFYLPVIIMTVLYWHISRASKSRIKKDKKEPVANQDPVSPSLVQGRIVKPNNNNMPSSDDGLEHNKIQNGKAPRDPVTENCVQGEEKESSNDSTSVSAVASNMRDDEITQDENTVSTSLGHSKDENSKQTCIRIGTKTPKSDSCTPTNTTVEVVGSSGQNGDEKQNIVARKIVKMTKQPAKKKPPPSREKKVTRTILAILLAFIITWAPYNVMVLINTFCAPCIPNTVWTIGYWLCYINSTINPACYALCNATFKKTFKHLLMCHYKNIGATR
Briefly: Inhibition of human muscarinic acetylcholine M2 receptor expressed in CHO cells co-expressing Gqi5 in the presence of acetylcholine at EC80 concentration by calcium mobilization assay.
Conditions: not given
Format: functional, cell-based.
As for `c1ccc(-c2ccc(NC[C@@H]3CC34CCN(CC3CCOCC3)CC4)nn2)cc1`, the IC50 is more than 10000 nM.
With `Fc1cc(F)c(F)c(-c2ccc(NC[C@@H]3CC34CCN(CC3CCOCC3)CC4)nn2)c1`, the IC50 is 1800 nM.

System in another series: not listed separately
The series is described as follows: Selectivity ratio of IC50 for inhibition of human muscarinic acetylcholine M2 receptor to IC50 for inhibition of human muscarinic acetylcholine M4 receptor expressed in CHO cells co-expressing Gqi5 in the presence of acetylcholine at EC80 concentration by calcium mobilization assay. Format: cell-based.
Conditions: not given
As to `c1ccc(-c2ccc(NC[C@@H]3CC34CCN(CC3CCOCC3)CC4)nn2)cc1`, the Ratio IC50 was more than 80.
The same measure, in the same setting: as for `Fc1cc(F)c(F)c(-c2ccc(NC[C@@H]3CC34CCN(CC3CCOCC3)CC4)nn2)c1`, the figure is 55.

The series is the same for the next values; noted with them: tested as the 2H-labelled form.
As to `Fc1cc(F)c(F)c(-c2ccc(NC[C@@H]3CC34CCN(CC3CCOCC3)CC4)nn2)c1`, the Ratio IC50 was found to be 70.

The next series has as its target T6, Cytochrome P450 1A2 (Homo sapiens, UniProt P05177).
T6 sequence (P05177 whole entry): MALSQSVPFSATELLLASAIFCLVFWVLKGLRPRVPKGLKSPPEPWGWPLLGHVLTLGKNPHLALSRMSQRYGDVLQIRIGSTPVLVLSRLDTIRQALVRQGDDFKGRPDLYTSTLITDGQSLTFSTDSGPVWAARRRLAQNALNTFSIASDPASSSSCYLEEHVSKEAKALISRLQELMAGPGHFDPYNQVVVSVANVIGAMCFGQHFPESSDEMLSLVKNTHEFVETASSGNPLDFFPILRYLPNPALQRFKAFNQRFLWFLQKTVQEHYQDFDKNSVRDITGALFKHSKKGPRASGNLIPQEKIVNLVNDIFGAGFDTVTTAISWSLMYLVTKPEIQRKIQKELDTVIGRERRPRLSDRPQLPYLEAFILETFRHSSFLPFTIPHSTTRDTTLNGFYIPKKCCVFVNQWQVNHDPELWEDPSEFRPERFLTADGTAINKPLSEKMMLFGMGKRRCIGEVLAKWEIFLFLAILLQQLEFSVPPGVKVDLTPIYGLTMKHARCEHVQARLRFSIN
The series is described as follows: Inhibition of CYP1A2 in human liver microsomes using cocktail of isoform-specific probe substrate. Format: ADME, Microsome.
Conditions: not given
As for `c1ccc(-c2ccc(NC[C@@H]3CC34CCN(CC3CCOCC3)CC4)nn2)cc1`, the IC50 was more than 30000 nM.
`Fc1cc(F)c(F)c(-c2ccc(NC[C@@H]3CC34CCN(CC3CCOCC3)CC4)nn2)c1`: the IC50 was more than 30000 nM.

For the next series, the target named is Cytochrome P450 2C9 (Homo sapiens, UniProt P11712). Briefly: Inhibition of CYP2C9 in human liver microsomes using cocktail of isoform-specific probe substrate. It is filed as ADME, Microsome.
Sequence of Cytochrome P450 2C9 (P11712 whole entry, canonical isoform): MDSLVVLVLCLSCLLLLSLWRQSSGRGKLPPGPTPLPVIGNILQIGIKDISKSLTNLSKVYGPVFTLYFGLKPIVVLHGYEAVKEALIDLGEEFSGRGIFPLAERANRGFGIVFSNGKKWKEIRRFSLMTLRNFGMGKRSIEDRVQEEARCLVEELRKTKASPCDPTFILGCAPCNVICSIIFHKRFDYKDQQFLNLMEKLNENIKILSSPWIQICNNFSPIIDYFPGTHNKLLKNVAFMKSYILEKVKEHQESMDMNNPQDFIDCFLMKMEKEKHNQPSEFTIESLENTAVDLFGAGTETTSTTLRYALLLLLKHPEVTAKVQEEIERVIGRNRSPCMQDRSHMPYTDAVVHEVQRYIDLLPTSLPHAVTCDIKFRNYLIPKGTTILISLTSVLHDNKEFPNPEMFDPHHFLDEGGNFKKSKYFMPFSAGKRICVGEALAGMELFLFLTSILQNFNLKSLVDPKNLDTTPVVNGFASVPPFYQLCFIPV
Conditions: not given
For orientation: Liver microsomes are a subcellular fraction often used to study metabolism.
Consider `c1ccc(-c2ccc(NC[C@@H]3CC34CCN(CC3CCOCC3)CC4)nn2)cc1`, for which the IC50 was more than 30000 nM.
In turn, `Fc1cc(F)c(F)c(-c2ccc(NC[C@@H]3CC34CCN(CC3CCOCC3)CC4)nn2)c1` showed an IC50 of more than 30000 nM.

A further series deals with Cytochrome P450 2D6 (Homo sapiens, UniProt P10635). Briefly: Inhibition of CYP2D6 in human liver microsomes using cocktail of isoform-specific probe substrate. Format: ADME, Microsome.
Sequence of Cytochrome P450 2D6 (P10635 whole entry, canonical isoform): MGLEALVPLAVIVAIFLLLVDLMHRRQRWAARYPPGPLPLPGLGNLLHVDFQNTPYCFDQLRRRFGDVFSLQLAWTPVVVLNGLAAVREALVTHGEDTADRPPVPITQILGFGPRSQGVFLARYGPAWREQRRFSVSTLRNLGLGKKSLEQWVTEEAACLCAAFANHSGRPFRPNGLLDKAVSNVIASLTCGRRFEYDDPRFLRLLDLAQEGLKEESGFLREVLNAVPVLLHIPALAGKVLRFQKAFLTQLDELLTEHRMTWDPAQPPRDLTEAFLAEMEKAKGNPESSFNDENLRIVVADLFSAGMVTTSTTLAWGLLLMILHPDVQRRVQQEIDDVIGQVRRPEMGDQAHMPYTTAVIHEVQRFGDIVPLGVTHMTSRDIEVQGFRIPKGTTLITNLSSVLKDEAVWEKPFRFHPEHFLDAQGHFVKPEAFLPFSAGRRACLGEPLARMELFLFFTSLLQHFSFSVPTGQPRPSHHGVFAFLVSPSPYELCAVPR
Conditions: not given
On to `c1ccc(-c2ccc(NC[C@@H]3CC34CCN(CC3CCOCC3)CC4)nn2)cc1`, for which half-maximal inhibition (IC50) required 2500 nM.
Still for that read-out and setting: then `Fc1cc(F)c(F)c(-c2ccc(NC[C@@H]3CC34CCN(CC3CCOCC3)CC4)nn2)c1`, with 550 nM.

The next series deals with Cytochrome P450 3A4 (Homo sapiens, UniProt P08684). The series is described as follows: Inhibition of CYP3A4 in human liver microsomes using cocktail of isoform-specific probe substrate. Format: ADME, Microsome.
Sequence of Cytochrome P450 3A4 (P08684 whole entry, canonical isoform): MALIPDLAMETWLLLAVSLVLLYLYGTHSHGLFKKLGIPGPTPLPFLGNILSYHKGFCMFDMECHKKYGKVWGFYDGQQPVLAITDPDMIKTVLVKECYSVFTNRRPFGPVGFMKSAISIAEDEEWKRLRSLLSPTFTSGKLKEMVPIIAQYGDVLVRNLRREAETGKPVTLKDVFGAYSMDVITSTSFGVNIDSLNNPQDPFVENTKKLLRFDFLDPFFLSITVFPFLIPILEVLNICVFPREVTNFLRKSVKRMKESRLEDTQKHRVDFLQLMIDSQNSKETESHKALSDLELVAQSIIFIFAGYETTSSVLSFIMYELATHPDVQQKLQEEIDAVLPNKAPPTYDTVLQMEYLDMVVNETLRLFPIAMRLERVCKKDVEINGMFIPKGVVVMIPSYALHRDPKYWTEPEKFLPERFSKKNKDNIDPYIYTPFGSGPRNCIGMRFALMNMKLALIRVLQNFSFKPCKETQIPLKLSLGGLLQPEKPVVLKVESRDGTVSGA
Conditions: not given
Regarding `c1ccc(-c2ccc(NC[C@@H]3CC34CCN(CC3CCOCC3)CC4)nn2)cc1`, the IC50 was more than 30000 nM.
The compound `Fc1cc(F)c(F)c(-c2ccc(NC[C@@H]3CC34CCN(CC3CCOCC3)CC4)nn2)c1` gave an IC50 of more than 30000 nM.

System in the next series: not listed separately
Briefly: Intrinsic clearance in human liver microsomes. Format: ADME, Microsome. As to conditions: read-out: CLH.
`c1ccc(-c2ccc(NC[C@@H]3CC34CCN(CC3CCOCC3)CC4)nn2)cc1`: the predicted hepatic clearance is 8 mL/min/kg.
In the case of `Fc1cc(F)c(F)c(-c2ccc(NC[C@@H]3CC34CCN(CC3CCOCC3)CC4)nn2)c1`, the predicted hepatic clearance is 8.4 mL/min/kg.

For the next series, the target named is hERG (KCNH2) (Homo sapiens, UniProt Q12809). The series is described as follows: Inhibition of hERG at 10 uM by patch clamp method relative to control. Format: toxicity.
Sequence of hERG (KCNH2) (Q12809 whole entry): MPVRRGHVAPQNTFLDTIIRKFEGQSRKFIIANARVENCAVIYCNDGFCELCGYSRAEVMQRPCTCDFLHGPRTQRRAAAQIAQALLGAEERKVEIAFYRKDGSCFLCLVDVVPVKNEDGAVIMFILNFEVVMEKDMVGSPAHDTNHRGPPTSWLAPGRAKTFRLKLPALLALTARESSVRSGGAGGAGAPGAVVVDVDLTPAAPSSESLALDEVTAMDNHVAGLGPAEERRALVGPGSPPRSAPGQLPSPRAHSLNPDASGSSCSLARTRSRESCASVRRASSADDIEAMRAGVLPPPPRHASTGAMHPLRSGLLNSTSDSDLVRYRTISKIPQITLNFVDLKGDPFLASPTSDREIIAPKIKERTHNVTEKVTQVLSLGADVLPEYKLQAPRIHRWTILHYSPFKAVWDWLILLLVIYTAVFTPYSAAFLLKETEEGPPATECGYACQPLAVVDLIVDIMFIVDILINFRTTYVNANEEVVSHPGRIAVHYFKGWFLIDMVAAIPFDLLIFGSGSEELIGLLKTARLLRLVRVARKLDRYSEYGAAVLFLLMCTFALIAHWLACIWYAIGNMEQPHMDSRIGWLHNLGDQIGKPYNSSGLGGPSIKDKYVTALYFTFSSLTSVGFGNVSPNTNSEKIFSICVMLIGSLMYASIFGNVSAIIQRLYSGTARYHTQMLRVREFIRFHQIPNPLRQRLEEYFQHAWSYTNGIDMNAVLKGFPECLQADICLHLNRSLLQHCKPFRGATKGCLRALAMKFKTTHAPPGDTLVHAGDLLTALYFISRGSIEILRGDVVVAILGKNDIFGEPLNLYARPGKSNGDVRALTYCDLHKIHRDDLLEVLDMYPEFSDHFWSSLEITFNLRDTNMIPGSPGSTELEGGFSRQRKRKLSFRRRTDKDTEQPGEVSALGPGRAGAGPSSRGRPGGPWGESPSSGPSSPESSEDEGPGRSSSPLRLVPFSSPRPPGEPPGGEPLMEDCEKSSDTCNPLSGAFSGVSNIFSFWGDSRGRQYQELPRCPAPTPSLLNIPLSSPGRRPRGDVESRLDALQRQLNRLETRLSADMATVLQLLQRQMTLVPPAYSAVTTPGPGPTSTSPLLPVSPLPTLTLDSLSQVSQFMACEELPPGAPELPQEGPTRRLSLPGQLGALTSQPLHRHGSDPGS
Conditions: not given
`Fc1cc(F)c(F)c(-c2ccc(NC[C@@H]3CC34CCN(CC3CCOCC3)CC4)nn2)c1` yielded an inhibition at 10 µM of 99%.

A word on the IC50: it is the point on the concentration scale where inhibition reaches its midpoint. By inhibition is commonly meant the percentage by which the read-out fell short of the control.
